Reference: PMC10355191 (Chemical research in toxicology, 2023)

Target: α2A-adrenergic receptor (Homo sapiens, UniProt P08913)
Sequence (P08913 whole entry): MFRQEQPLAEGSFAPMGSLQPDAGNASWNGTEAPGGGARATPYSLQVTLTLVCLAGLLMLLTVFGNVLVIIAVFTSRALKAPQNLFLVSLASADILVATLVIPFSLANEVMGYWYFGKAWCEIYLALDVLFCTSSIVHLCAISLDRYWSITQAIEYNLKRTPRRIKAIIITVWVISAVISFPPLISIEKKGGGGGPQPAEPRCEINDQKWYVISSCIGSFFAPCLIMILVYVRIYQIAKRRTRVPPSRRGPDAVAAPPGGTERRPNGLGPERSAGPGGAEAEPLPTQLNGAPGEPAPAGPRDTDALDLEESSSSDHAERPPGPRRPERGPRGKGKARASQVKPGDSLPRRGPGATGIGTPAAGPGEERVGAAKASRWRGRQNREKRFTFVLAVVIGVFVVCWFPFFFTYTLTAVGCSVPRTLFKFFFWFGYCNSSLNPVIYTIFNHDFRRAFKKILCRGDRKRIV

% inhibition at 1 μM: 50
Structure (SMILES): N=C(N)N/N=C/c1c(Cl)cccc1Cl [E-GA, trans-guanabenz]
